Laboratory results from patent publication US7470671B2, “Thioxylose compounds, preparation method thereof, pharmaceutical compositions containing same and use thereof in therapeutics” (Laboratoire Fournier, priority 2003, dated 2008).
Counter-ions that a name gives are not always drawn. Like-named read-outs stand apart in the source and are kept apart here.

System: venous thrombosis
Assay: venous thrombosis test in the rat (venous stasis under hypercoagulation with factor Xa, Wessler technique)
Type: in vivo
Settings: Wistar male rats
Description: The antithrombotic activity of the compounds according to the invention was studied in vivo in the rat by means of a test that reproduces a venous thrombosis.
The venous thrombosis was induced according to the protocol described in Thromb. Haemost., 1992, 67(1), 176-179. The intravenous or oral activity was studied according to the following operating protocol:
The experiments are performed on non-fasted Wistar male rats weighing 250 to 280 g, divided into groups of 10 animals each. The test products are administered either orally (tubage) dissolved or suspended in isotonic solution, or by intravenous injection dissolved in isotonic solution or in a PEG 400/water mixture. The concentration of the compounds is calculated so that the amount of solution absorbed is 2 ml/kg by oral administration and 1 ml/kg by intravenous injection. A thrombosis is induced at a time T (0.5, 2, 4 or 8 hours) after administration of the product, and the thrombus formed is removed and weighed. To induce this thrombosis, a venous stasis is created under hypercoagulation according to the technique described by WESSLER (J Applied Physiol., 1959, 943-946), the hypercoagulating agent used being a solution of activated factor X (Xa) having a concentration of 7.5 nKat/kg, supplied by Biogenic (Montpellier). The venous stasis is effected exactly 15 seconds after injection of the hypercoagulating agent. The activity of the test compounds was checked at different doses after they had been administered either orally (p.o.) or intravenously (i.v.). The thrombosis was induced 2 hours or 4 hours after oral administration of the compound and 2 hours after intravenous administration of the compound.

[1] = Rattus norvegicus, iv, 2 h, intravenous, thrombosis induced 2 h after administration, read-out: Activity % (percentage inhibition of thrombus formation)
[2] = Rattus norvegicus, po, 4 h, oral, thrombosis induced 4 h after administration, read-out: Activity % (percentage inhibition of thrombus formation)
[3] = intravenous, dose 2.5 mg/kg, thrombosis induced 2 h after administration
[4] = Rattus norvegicus, po, 2 h, oral, thrombosis induced 2 h after administration, read-out: Activity % (percentage inhibition of thrombus formation)

CC(=O)O[C@@H]1[C@@H](OC(C)=O)[C@H](OC(C)=O)CS[C@H]1Oc1cccnc1 [Example 1A, 3-Pyridinyl 2,3,4-tri-O-acetyl-5-thio-β-D-Xylopyranoside Methanesulfonate]
inhibition in vivo at 4 mg/kg [1]: 83%
inhibition in vivo at 6 mg/kg [2]: 51%

O[C@@H]1[C@@H](O)[C@H](Oc2cccnc2)SC[C@H]1O [Example 2, 3-Pyridinyl 5-Thio-β-D-Xylopyranoside]
inhibition in vivo at 2.5 mg/kg (Rattus norvegicus, iv, 2 h, intravenous, dose 2.5 mg/kg, thrombosis induced 2 h after administration, read-out: Activity % (percentage inhibition of thrombus formation)): 72%
inhibition in vivo at 1.5 mg/kg (Rattus norvegicus, po, 4 h, oral, dose 1.5 mg/kg, thrombosis induced 4 h after administration, read-out: Activity % (percentage inhibition of thrombus formation)): 67%
inhibition in vivo at 3 mg/kg [2]: 91%

CS(=O)(=O)O.O[C@@H]1[C@@H](O)[C@H](Oc2cccnc2)SC[C@H]1O [Example 2A, 3-Pyridinyl 5-Thio-β-D-Xylopyranoside Methanesulfonate]
inhibition in vivo at 5 mg/kg [1]: 94%
inhibition in vivo at 4.2 mg/kg (Rattus norvegicus, po, 2 h, oral, dose 4.2 mg/kg, thrombosis induced 2 h after administration, read-out: Activity % (percentage inhibition of thrombus formation)): 96%
Activity % (percentage inhibition of thrombus formation) [3]: 68%

Cl.O[C@@H]1[C@@H](O)[C@H](Oc2cccnc2)SC[C@H]1O [Example 2C, 3-Pyridinyl 5-Thio-β-D-Xylopyranoside Hydrochloride]
inhibition in vivo at 4 mg/kg [1]: 95%
inhibition in vivo at 6 mg/kg [2]: 55%
Activity % (percentage inhibition of thrombus formation) [3]: 72%

Cc1ncccc1O[C@@H]1SC[C@@H](O)[C@H](O)[C@H]1O [Example 12, 2-Methyl-3-Pyridinyl 5-Thio-β-D-Xylopyranoside]
inhibition in vivo at 3 mg/kg [2]: 52%

O[C@@H]1[C@@H](O)[C@H](Oc2cncc(Cl)c2)SC[C@H]1O [Example 18, 5-Chloro-3-Pyridinyl 5-Thio-β-D-Xylopyranoside]
inhibition in vivo at 3 mg/kg [2]: 46%

N#Cc1ncccc1O[C@@H]1SC[C@@H](O)[C@H](O)[C@H]1O [Example 20, 2-Cyano-3-Pyridinyl 5-Thio-β-D-Xylopyranoside]
inhibition in vivo at 3 mg/kg [2]: 50%

COC(=O)O[C@@H]1[C@@H](OC(=O)OC)[C@H](OC(=O)OC)CS[C@H]1Oc1cccnc1 [Example 31A, 3-Pyridinyl 2,3,4-Tris-O-(Methoxycarbonyl)-5-Thio-β-D-Xylopyranoside Hydrochloride]
inhibition in vivo at 5.6 mg/kg (Rattus norvegicus, po, 4 h, oral, dose 5.6 mg/kg, thrombosis induced 4 h after administration, read-out: Activity % (percentage inhibition of thrombus formation)): 63%

COC(=O)O[C@@H]1[C@@H](OC(=O)OC)[C@H](OC(=O)OC)CS[C@H]1Oc1cccnc1 [Example 31B, 3-Pyridinyl 2,3,4-Tris-O-(Methoxycarbonyl)-5-Thio-β-D-Xylopyranoside Methanesulfonate]
inhibition in vivo at 5 mg/kg [1]: 88%
inhibition in vivo at 8 mg/kg (Rattus norvegicus, po, 4 h, oral, dose 8 mg/kg, thrombosis induced 4 h after administration, read-out: Activity % (percentage inhibition of thrombus formation)): 94%

CC(=O)O[C@@H]1[C@@H](OC(C)=O)[C@H](OC(C)=O)CS[C@H]1Oc1cccnc1Cl [Example 36, 2-Chloro-3-Pyridinyl 2,3,4-Tri-O-Acetyl-5-Thio-β-D-Xylopyranoside]
inhibition in vivo at 6 mg/kg [4]: 91%

O[C@@H]1[C@@H](O)[C@H](Oc2cccnc2Cl)SC[C@H]1O [Example 37, 2-Chloro-3-Pyridinyl 5-Thio-β-D-Xylopyranoside]
inhibition in vivo at 6 mg/kg [4]: 96%

O[C@@H]1[C@@H](O)[C@H](Oc2ccc(C(F)(F)F)nc2)SC[C@H]1O [Example 41, 6-(Trifluoromethyl)-3-Pyridinyl 5-Thio-β-D-Xylopyranoside]
inhibition in vivo at 6 mg/kg [4]: 97%

O[C@@H]1[C@@H](O)[C@H](Oc2cncc(F)c2)SC[C@H]1O [Example 49, 5-Fluoro-3-Pyridinyl 5-Thio-β-D-Xylopyranoside]
inhibition in vivo at 6 mg/kg [4]: 90%

CCCC(=O)O[C@@H]1[C@@H](OC(=O)CCC)[C@H](OC(=O)CCC)CS[C@H]1Oc1cccnc1 [Example 93, 3-Pyridinyl 2,3,4-Tri-O-Butanoyl-5-Thio-β-D-Xylopyranoside]
inhibition in vivo at 6 mg/kg [4]: 81%
